# Where a SMILES comes first, the peptide text is derived from it. [ ]: non-standard residue; d: D form. Phe(3-Br) = N[C@@H](Cc1cccc(Br)c1)C(=O)O; NMeNle = CCCC[C@H](NC)C(=O)O
# Legend:
# [1] = molecular target: T1, CCK-B receptors (CHO-CCK) (Homo sapiens, UniProt P32239); test: Calcium flux (Fluo-8) agonist test on CHO-CCK model cells; assay type: cell-based; conditions: for Agonistic Activity (%) at 10 μM: compound at 10 μM, percentage of signal of 20 nM CCK8 alone; for EC50: CHO-CCK cells, compound alone
# T1 construct: expressed in transfected cells; host or cells: CHO (CHO-CCK model cells)
# T1 sequence (P32239 1-447): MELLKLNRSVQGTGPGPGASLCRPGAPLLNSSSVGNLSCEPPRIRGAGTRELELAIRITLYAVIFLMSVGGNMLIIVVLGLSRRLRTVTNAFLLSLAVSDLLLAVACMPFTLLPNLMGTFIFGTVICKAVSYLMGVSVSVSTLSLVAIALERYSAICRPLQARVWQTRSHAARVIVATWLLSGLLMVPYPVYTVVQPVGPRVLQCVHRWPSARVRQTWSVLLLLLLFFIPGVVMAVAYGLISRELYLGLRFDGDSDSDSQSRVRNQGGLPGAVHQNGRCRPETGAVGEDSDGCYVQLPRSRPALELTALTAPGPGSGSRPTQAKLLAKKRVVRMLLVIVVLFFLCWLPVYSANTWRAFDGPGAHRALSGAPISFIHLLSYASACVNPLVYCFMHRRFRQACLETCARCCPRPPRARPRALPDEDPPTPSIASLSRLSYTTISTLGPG
# Summary of the method: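 Agonist-mode Fluo-8 calcium flux read on CHO-CCK cells after dye loading 30 min at 37 °C plus 30 min at room temperature.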
# [2] = molecular target: T1, CCK-B receptors (CHO-CCK); test: Calcium flux (Fluo-8) antagonist test on CHO-CCK model cells in presence of CCK8; assay type: cell-based
# Procedure: The compound was formulated to a 10 mM mother liquor with DMSO, and then diluted into a series of 9 concentrations with a 3-fold gradient to form a 1000× stock solution. […] Prepare 1×Fluo-8 analysis buffer: mix 9 mL of HHBS, 1 mL of 10× Pluronic F127 Plus and 20 μL of Fluo-8 thoroughly for later use. • 3. Add Fluo-8 dye working solution to the cell plate, 100 μL/well. First incubate in a 37° C. incubator for 30 min, and then take it out and incubate at room temperature in the dark for 30 min. • 4. In the process of incubating cells, the compounds to be detected were prepared with HHBS. • 5. […] The agonism/antagonism EC50 of the compound can be obtained by plotting the fitting curve with the agonism/antagonism percentage as Y-axis and the concentration of the compound as X-axis.
# [3] = compound together with 10 nM CCK8, bound in μM
# [4] = compound together with 10 nM CCK8
Agonistic Activity (%) at 10 μM [1] [%],"EC50 [2, 3] [µM]",EC50 ([1]; 100% = 20 nM CCK8) [µM],"EC50 [2, 4] [µM]",EC50 ([1]; bound in μM) [µM],Compound
8.35,> 10,–,–,–,"CS(=O)(=O)CC[C@H](NC(=O)[C@H](N)Cc1c[nH]c2ccccc12)C(=O)N[C@@H](CC(=O)O)C(=O)N[C@@H](Cc1ccc(N=[N+]=[N-])cc1)C(N)=O [HT-65, D-Trp-Met(O2)-Asp-Phe(4-N3)-NH2]"
82.71,–,1.51,2.62,–,"CS(=O)(=O)CC[C@H](NC(=O)[C@H](N)Cc1c[nH]c2ccccc12)C(=O)N[C@@H](CC(=O)O)C(=O)N[C@@H](Cc1cc(Cl)cc(Cl)c1)C(N)=O [HT-72, D-Trp-Met(O2)-Asp-Phe(3,5-DiCl)-NH2]"
55.41,–,12.6,8.82,–,"CS(=O)(=O)CC[C@H](NC(=O)[C@H](N)Cc1c[nH]c2ccccc12)C(=O)N[C@@H](CC(=O)O)C(=O)N[C@@H](Cc1cc(F)cc(F)c1)C(N)=O [HT-73, D-Trp-Met(O2)-Asp-Phe(3,5-DIF)-NH2]"
55.05,–,11,8.42,–,"CS(=O)(=O)CC[C@H](NC(=O)[C@H](N)Cc1c[nH]c2ccccc12)C(=O)N[C@@H](CC(=O)O)C(=O)N[C@@H](Cc1cc(F)c(F)c(F)c1)C(N)=O [HT-74, D-Trp-Met(O2)-Asp-Phe(3,4,5-TriF)-NH2]"
20.83,~10,–,–,–,"COC(=O)C[C@H](NC(=O)[C@H](CCSC)NC(=O)[C@H](N)Cc1c[nH]c2ccccc12)C(=O)N[C@@H](Cc1cccc(F)c1)C(N)=O [HT-78, D-Trp-Met-Asp(Ome)-Phe(3-F)-NH2]"
38.37,–,2.29,1.99,–,"COC(=O)C[C@H](NC(=O)[C@H](CCSC)NC(=O)[C@H](N)Cc1c[nH]c2ccccc12)C(=O)N[C@@H](Cc1cccc(I)c1)C(N)=O [HT-79, D-Trp-Met-Asp(Ome)-Phe(3-I)-NH2]"
57.83,–,0.572,0.807,–,"COC(=O)C[C@H](NC(=O)[C@H](CCSC)NC(=O)[C@H](N)Cc1c[nH]c2ccccc12)C(=O)N[C@@H](Cc1cccc(Br)c1)C(N)=O [HT-80, D-Trp-Met-Asp(Ome)-Phe(3-Br)-NH2]"
28.73,–,–,9.98,–,"COC(=O)C[C@H](NC(=O)[C@H](CCSC)NC(=O)[C@H](N)Cc1c[nH]c2ccccc12)C(=O)N[C@@H](Cc1ccc(F)cc1)C(N)=O [HT-87, D-Trp-Met-Asp(Ome)-Phe(4-F)-NH2]"
44.86,–,3.21,3.62,–,"COC(=O)C[C@H](NC(=O)[C@H](CCSC)NC(=O)[C@H](N)Cc1c[nH]c2ccccc12)C(=O)N[C@@H](Cc1cc(Cl)cc(Cl)c1)C(N)=O [HT-89, D-Trp-Met-Asp(Ome)-Phe(3,5-DiCl)-NH2]"
59.76,–,9.3,5.91,–,"COC(=O)C[C@H](NC(=O)[C@H](CCSC)NC(=O)[C@H](N)Cc1c[nH]c2ccccc12)C(=O)N[C@@H](Cc1cc(F)cc(F)c1)C(N)=O [HT-90, D-Trp-Met-Asp(Ome)-Phe(3,5-DiF)-NH2]"
–,> 10,1.63,–,–,"CCCC[C@@H](C(=O)N[C@@H](CC(=O)O)C(=O)N[C@@H](Cc1cccc(Br)c1)C(N)=O)N(C)C(=O)[C@@H](Cc1c[nH]c2ccccc12)NC(C)=O [HT-179, Ac-D-Trp-(N-Me-Nle)-Asp-Phe(3-Br)-NH2] (Ac-[dW][NMeNle]D[Phe(3-Br)]-NH2)"
–,–,0.447,3.56,–,"CSCC[C@H](NC(=O)[C@@H](Cc1ccccc1)NC(C)=O)C(=O)N[C@@H](CC(=O)O)C(=O)N[C@@H](Cc1cccc(Br)c1)C(N)=O [HT-180, Ac-D-Phe-Met-Asp-Phe(3-Br)-NH2] (Ac-[dF]MD[Phe(3-Br)]-NH2)"
–,> 10,3.9,–,–,"CSCC[C@H](NC(=O)[C@@H](Cc1cc[nH]c1)NC(C)=O)C(=O)N[C@@H](CC(=O)O)C(=O)N[C@@H](Cc1cccc(Br)c1)C(N)=O [HT-181, Ac-D-His-Met-Asp-Phe(3-Br)-NH2]"
–,–,0.421,3.3,–,"CSCC[C@H](NC(=O)[C@@H](Cc1ccc(O)cc1)NC(C)=O)C(=O)N[C@@H](CC(=O)O)C(=O)N[C@@H](Cc1cccc(Br)c1)C(N)=O [HT-182, Ac-D-Tyr-Met-Asp-Phe(3-Br)-NH2] (Ac-[dY]MD[Phe(3-Br)]-NH2)"
–,–,4.46,9.41,–,"CSCC[C@H](NC(=O)[C@@H](CC(C)C)NC(C)=O)C(=O)N[C@@H](CC(=O)O)C(=O)N[C@@H](Cc1cccc(Br)c1)C(N)=O [HT-183, Ac-D-Leu-Met-Asp-Phe(3-Br)-NH2] (Ac-[dL]MD[Phe(3-Br)]-NH2)"
–,–,4.32,4.41,–,"CC(=O)N[C@H](Cc1c[nH]c2ccccc12)C(=O)N[C@@H](CCC(N)=O)C(=O)N[C@@H](CC(=O)O)C(=O)N[C@@H](Cc1cccc(Br)c1)C(N)=O [HT-184, Ac-D-Trp-Glu-Asp-Phe(3-Br)-NH2]"
–,–,3.82,12,–,"CC(=O)N[C@H](Cc1c[nH]c2ccccc12)C(=O)N[C@@H](CCC(N)=O)C(=O)N[C@@H](CC(=O)O)C(=O)N[C@@H](Cc1cccc(Br)c1)C(N)=O [HT-185, Ac-D-Trp-Gln-Asp-Phe(3-Br)-NH2]"
–,–,1.34,7.71,–,"CSCC[C@H](NC(=O)[C@@H](Cc1c[nH]c2ccccc12)NC(C)=O)C(=O)N[C@@H](CCC(=O)O)C(=O)N[C@@H](Cc1cccc(Br)c1)C(N)=O [HT-186, Ac-D-Trp-Met-Glu-Phe(3-Br)-NH2] (Ac-[dW]ME[Phe(3-Br)]-NH2)"
–,> 10,–,–,> 10,"CSCC[C@H](NC(=O)[C@@H](Cc1c[nH]c2ccccc12)NC(C)=O)C(=O)N[C@@H](CC(N)=O)C(=O)N[C@@H](Cc1cccc(Br)c1)C(N)=O [HT-187, Ac-D-Trp-Met-Asn-Phe(3-Br)-NH2] (Ac-[dW]MN[Phe(3-Br)]-NH2)"
–,–,1.84,7.55,–,"CSCC[C@H](NC(=O)[C@@H](Cc1c[nH]c2ccccc12)NC(C)=O)C(=O)N[C@@H](CCCCN)C(=O)N[C@@H](Cc1cccc(Br)c1)C(N)=O [HT-188, Ac-D-Trp-Met-Lys-Phe(3-Br)-NH2] (Ac-[dW]MK[Phe(3-Br)]-NH2)"
–,–,1.99,5.95,–,"CSCC[C@H](NC(=O)[C@@H](Cc1c[nH]c2ccccc12)NC(C)=O)C(=O)N[C@@H](Cc1c[nH]cn1)C(=O)N[C@@H](Cc1cccc(Br)c1)C(N)=O [HT-189, Ac-D-Trp-Met-His-Phe(3-Br)-NH2] (Ac-[dW]MH[Phe(3-Br)]-NH2)"
–,–,4.75,6.16,–,"CSCC[C@H](NC(=O)[C@@H](Cc1c[nH]c2ccccc12)NC(C)=O)C(=O)N[C@@H](CC(C)C)C(=O)N[C@@H](Cc1cccc(Br)c1)C(N)=O [HT-190, Ac-D-Trp-Met-Leu-Phe(3-Br)-NH2] (Ac-[dW]ML[Phe(3-Br)]-NH2)"
–,> 10,–,–,> 10,"CSCC[C@H](NC(=O)[C@H](Cc1c[nH]c2ccccc12)NC(C)=O)C(=O)N[C@@H](CC(=O)O)C(=O)N[C@@H](Cc1c[nH]cn1)C(N)=O [HT-191, Ac-Trp-Met-Asp-His-NH2] (Ac-WMDH-NH2)"
–,–,–,8.76,> 10,"CSCC[C@H](NC(=O)[C@H](Cc1c[nH]c2ccccc12)NC(C)=O)C(=O)N[C@@H](CC(=O)O)C(=O)N[C@@H](CC(C)C)C(N)=O [HT-192, Ac-Trp-Met-Asp-Leu-NH2] (Ac-WMDL-NH2)"
–,–,0.000814,0.057,–,"CSCC[C@H](NC(=O)[C@H](Cc1c[nH]c2ccccc12)NC(C)=O)C(=O)N[C@@H](CC(=O)O)C(=O)N[C@@H](Cc1c[nH]c2ccccc12)C(N)=O [HT-193, Ac-Trp-Met-Asp-Trp-NH2] (Ac-WMDW-NH2)"
–,–,–,2.22,> 10,"CSCC[C@H](NC(=O)[C@H](Cc1c[nH]c2ccccc12)NC(C)=O)C(=O)N[C@@H](CC(=O)O)C(=O)N[C@@H](CCCCN)C(N)=O [HT-194, Ac-Trp-Met-Asp-Lys-NH2] (Ac-WMDK-NH2)"

# Source: patent US20240415918A1, “Polypeptide and its use as a CCK receptor agonist/antagonist” (Centre for Regenerative Medicine & Health, Hong Kong …, priority 2021, published 2024)
